Measurements published in publication doi:10.1101/2022.01.05.475007v1 (biorxiv, 2022).

Assays:
[1] = biological target: T1, Sirt3 (hSirt3 118-399) (Homo sapiens, UniProt Q9NTG7); assay: fluorescence deacetylation assay; assay type: biochemical; conditions: read-out: % control at 10 μM
T1 sequence (Q9NTG7 118-399): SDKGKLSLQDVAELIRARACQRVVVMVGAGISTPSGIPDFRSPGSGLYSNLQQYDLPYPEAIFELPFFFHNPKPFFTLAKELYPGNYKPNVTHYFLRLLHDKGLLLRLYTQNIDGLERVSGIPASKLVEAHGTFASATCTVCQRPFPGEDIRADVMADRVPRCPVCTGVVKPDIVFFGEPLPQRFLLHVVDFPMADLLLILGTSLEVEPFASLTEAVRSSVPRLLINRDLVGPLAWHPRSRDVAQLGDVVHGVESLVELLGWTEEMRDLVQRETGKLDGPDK

[2] = biological target: T1, Sirt3 (hSirt3 118-399); assay: switchSENSE kinetics; assay type: binding; conditions: absence of cofactors; HDAC buffer, 5% DMSO, 25 °C

Structure (SMILES) | remaining activity at 10 µM [1] | Kd [2]
C=C(CC)C(=O)c1ccc(OCC(=O)N[C@H](Cc2ccc(Cl)cc2)C(=O)NCCCC)c(Cl)c1Cl [AA12AC92] | 83.1% | –
CCCCNC(=O)COc1ccc2c(c1)CCc1ccccc1C2NC(=O)CCCOc1cc([N+](=O)[O-])c(C(C)O)cc1OC (centres unmarked) [AA8AC40] | – | 4.56 ± 3.5 µM
CCCCNC(=O)COc1ccc2c(c1)CCc1ccccc1C2NC(=O)CSC(=S)c1ccccc1 (centres unmarked) [AA8AC71] | 72.4% | –
C=C(CC)C(=O)c1ccc(OCC(=O)NC2c3ccccc3CCc3cc(OCC(=O)NCCCC)ccc32)c(Cl)c1Cl (centres unmarked) [AA8AC92] | 75.7% | –
CCCCNC(=O)[C@@H](Cc1ccc(Cl)cc1)NC(=O)CSC(=S)c1ccccc1 [AA12AC71] | 76.5% | –
